In ChEMBL document CHEMBL1201862, “PubChem BioAssay data set” (2004):
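96-well plates; 48 h exposure; 5 concentrations. Endpoints by linear interpolation between flanking doses. Not reached: highest tested concentration assigned. Abbreviation: GI50, concentration required for 50% inhibition of growth.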 Calls of active or inactive are those of the source. Cut-off read from the data, not from the text of the source: active = GI50 up to about 1.1 µM and inactive = higher.

Columns and labels:
Experiment in all cases: NCI tumour cell line growth inhibition, 48 h
[1] = tested on: MDA-N
[2] = tested on: NCI-H23
[3] = tested on: UACC-62
[4] = tested on: UO-31
[5] = tested on: HCC 2998
[6] = tested on: EKVX
[7] = tested on: SN12C
[8] = tested on: CCRF-CEM
[9] = tested on: OVCAR-4
[10] = tested on: NCI-H226
[11] = tested on: K562
[12] = tested on: SNB-75
[13] = tested on: HT-29
[14] = tested on: BT-549
[15] = tested on: OVCAR-3
[16] = tested on: A549
[17] = tested on: OVCAR-8
[18] = tested on: HCT-116
[19] = tested on: SK-MEL-5
[20] = tested on: NCI-H460
[21] = tested on: SW-620
[22] = tested on: MDA-MB-435
[23] = tested on: SK-MEL-28
[24] = tested on: DU-145
[25] = tested on: HOP-62
[26] = tested on: ACHN
[27] = tested on: IGROV-1
[28] = tested on: RXF 393
[29] = tested on: UACC-257
[30] = tested on: TK-10
[31] = tested on: KM12
[32] = tested on: SF-295
[33] = tested on: SK-OV-3
[34] = tested on: T47D
[35] = tested on: Hs-578T
[36] = tested on: RPMI-8226
[37] = tested on: MDA-MB-231
[38] = tested on: LOX IMVI
[39] = tested on: NCI/ADR-RES
[40] = tested on: PC-3
[41] = tested on: NCI-H522
[42] = tested on: HCT-15
[43] = tested on: HOP-92
[44] = tested on: SK-MEL-2
[45] = tested on: HL-60
[46] = tested on: CAKI-1
[47] = tested on: MCF7
[48] = tested on: U-251
[49] = tested on: SNB-19
[50] = tested on: SF-268
[51] = tested on: OVCAR-5
[52] = tested on: SR
[53] = tested on: MOLT-4
[54] = tested on: A498
[55] = tested on: Malme-3M
[56] = tested on: 786-0
[57] = tested on: SF-539
[58] = tested on: M14
[59] = tested on: COLO 205

With `Nc1nc(Cl)c(Cl)c(NCC2(O)CCC2)n1` the GI50 [1] was > 100 µM (inactive), the GI50 [2] was 38.9 µM (inactive) and the GI50 [3] was 36.2 µM (inactive). The GI50 [4] was 31.2 µM (inactive), the GI50 [5] was 88.3 µM (inactive) and the GI50 [6] was 22 µM (inactive). For the same compound, the GI50 [7] was > 100 µM (inactive), the GI50 [8] was > 100 µM (inactive) and the GI50 [9] was 19 µM (inactive). The GI50 [10] was 23.6 µM (inactive), the GI50 [11] was 24.7 µM (inactive) and the GI50 [12] was > 100 µM (inactive). For the same compound, the GI50 [13] was > 100 µM (inactive), the GI50 [14] was 44.6 µM (inactive) and the GI50 [15] was 51.2 µM (inactive). For the same compound, the GI50 [16] was 76.4 µM (inactive), the GI50 [17] was 92.9 µM (inactive) and the GI50 [18] was 57.3 µM (inactive). The GI50 [19] was 18.8 µM (inactive), the GI50 [20] was > 100 µM (inactive) and the GI50 [21] was > 100 µM (inactive). For the same compound, the GI50 [22] was 88.3 µM (inactive), the GI50 [23] was > 100 µM (inactive) and the GI50 [24] was > 100 µM (inactive). For the same compound, the GI50 [25] was 92.3 µM (inactive), the GI50 [26] was > 100 µM (inactive) and the GI50 [27] was 45.6 µM (inactive). The GI50 [28] was 38.4 µM (inactive), the GI50 [29] was > 100 µM (inactive) and the GI50 [30] was > 100 µM (inactive). The GI50 [31] was > 100 µM (inactive), the GI50 [32] was 43.9 µM (inactive) and the GI50 [33] was 39.3 µM (inactive). The GI50 [34] was 2.76 µM (inactive), the GI50 [35] was 51.3 µM (inactive) and the GI50 [36] was 42 µM (inactive). For the same compound, the GI50 [37] was 74.1 µM (inactive), the GI50 [38] was 28.5 µM (inactive) and the GI50 [39] was 45 µM (inactive). The GI50 [40] was > 100 µM (inactive), the GI50 [41] was 18.3 µM (inactive) and the GI50 [42] was 38.9 µM. The GI50 [43] was 29.1 µM (inactive), the GI50 [44] was > 100 µM (inactive) and the GI50 [45] was 44 µM (inactive). The GI50 [46] was 16.1 µM (inactive), the GI50 [47] was 74.1 µM (inactive) and the GI50 [48] was 92.7 µM (inactive). For the same compound, the GI50 [49] was > 100 µM (inactive), the GI50 [50] was > 100 µM (inactive) and the GI50 [51] was > 100 µM (inactive). For the same compound, the GI50 [52] was 47.5 µM (inactive), the GI50 [53] was 33 µM (inactive) and the GI50 [54] was 11.4 µM (inactive). For the same compound, the GI50 [55] was 62.7 µM (inactive), the GI50 [56] was > 100 µM (inactive) and the GI50 [57] was > 100 µM (inactive).

`CCCC(=O)NC(Nc1ccc(F)cc1)(C(F)(F)F)C(F)(F)F` was tested, and the GI50 [1] was > 40.7 µM (inactive), the GI50 [2] was > 43.4 µM (inactive) and the GI50 [3] was 1.09 µM (active). For the same compound, the GI50 [4] was 9.48 µM (inactive), the GI50 [5] was 98.6 µM (inactive) and the GI50 [6] was > 100 µM (inactive). The GI50 [7] was > 100 µM (inactive), the GI50 [9] was 12.6 µM (inactive) and the GI50 [10] was > 100 µM (inactive). The GI50 [11] was 0.1 µM (active), the GI50 [12] was > 100 µM (inactive) and the GI50 [13] was 64.3 µM (inactive). For the same compound, the GI50 [14] was 80 µM (inactive), the GI50 [15] was > 100 µM (inactive) and the GI50 [16] was 16.9 µM (inactive). For the same compound, the GI50 [17] was 24.1 µM (inactive), the GI50 [18] was 19.8 µM (inactive) and the GI50 [19] was 1.03 µM (active). For the same compound, the GI50 [20] was 56.5 µM (inactive), the GI50 [21] was 2.84 µM (inactive) and the GI50 [22] was 1.25 µM (inactive). The GI50 [23] was > 75.2 µM (inactive), the GI50 [24] was 33.2 µM (inactive) and the GI50 [25] was > 100 µM (inactive). For the same compound, the GI50 [58] was 0.387 µM (active), the GI50 [26] was 2.14 µM (inactive) and the GI50 [28] was > 100 µM (inactive). For the same compound, the GI50 [29] was 8.2 µM (inactive), the GI50 [30] was > 43.7 µM (inactive) and the GI50 [31] was 2.49 µM (inactive). The GI50 [32] was 24.5 µM (inactive), the GI50 [33] was > 100 µM (inactive) and the GI50 [34] was 7.14 µM (inactive). The GI50 [35] was > 55 µM (inactive), the GI50 [36] was 32.2 µM (inactive) and the GI50 [37] was > 100 µM (inactive). For the same compound, the GI50 [38] was 0.404 µM (active), the GI50 [39] was 9.31 µM (inactive) and the GI50 [40] was 19.1 µM (inactive). The GI50 [59] was 7.1 µM (inactive), the GI50 [41] was 27.4 µM (inactive) and the GI50 [42] was 5.79 µM. The GI50 [43] was > 100 µM (inactive), the GI50 [44] was 2.25 µM (inactive) and the GI50 [45] was 1.75 µM (inactive). The GI50 [46] was > 100 µM (inactive), the GI50 [47] was > 37.7 µM (inactive) and the GI50 [48] was > 100 µM (inactive). For the same compound, the GI50 [49] was > 100 µM (inactive), the GI50 [50] was > 100 µM (inactive) and the GI50 [51] was > 100 µM (inactive). The GI50 [52] was > 100 µM (inactive), the GI50 [53] was 7.98 µM (inactive) and the GI50 [54] was > 100 µM (inactive). For the same compound, the GI50 [55] was > 100 µM (inactive), the GI50 [56] was > 100 µM (inactive) and the GI50 [57] was > 79.4 µM (inactive).

`CNc1ccc(C(=O)CC(O)CCC(C)C2OC(=O)CC(O)CC(=O)CC(O)CC(O)CC(O)CC(O)CC3(O)CC(O)C(C(=O)NCCN(C)C)C(CC(OC4OC(C)C(O)C(NC(=O)CN5CCN(C)CC5)C4O)\C=C/C=C\C=C/C=C/C=C/C=C\C=C/C2C)O3)cc1` (stereo not drawn) was tested, and the GI50 [1] was 6.46 µM (inactive), the GI50 [2] was 4.54 µM (inactive) and the GI50 [3] was 46.2 µM (inactive). For the same compound, the GI50 [4] was 4.34 µM (inactive), the GI50 [5] was 2.55 µM (inactive) and the GI50 [7] was 3.21 µM (inactive). The GI50 [9] was 14 µM (inactive), the GI50 [10] was > 100 µM (inactive) and the GI50 [11] was 3.2 µM (inactive). For the same compound, the GI50 [12] was > 100 µM (inactive), the GI50 [13] was 3.85 µM (inactive) and the GI50 [14] was 11.2 µM (inactive). For the same compound, the GI50 [16] was 2.88 µM (inactive), the GI50 [17] was 13.9 µM (inactive) and the GI50 [19] was 2.81 µM (inactive). For the same compound, the GI50 [20] was 4.73 µM (inactive), the GI50 [21] was 3.66 µM (inactive) and the GI50 [22] was 14.9 µM (inactive). For the same compound, the GI50 [23] was 9.27 µM (inactive), the GI50 [24] was 3.22 µM (inactive) and the GI50 [25] was 25.6 µM (inactive). For the same compound, the GI50 [58] was 30.8 µM (inactive), the GI50 [26] was 2.84 µM (inactive) and the GI50 [27] was 7.67 µM (inactive). For the same compound, the GI50 [28] was > 100 µM (inactive), the GI50 [29] was 10.7 µM (inactive) and the GI50 [30] was 22.5 µM (inactive). For the same compound, the GI50 [31] was 2.08 µM (inactive), the GI50 [32] was 25.2 µM (inactive) and the GI50 [33] was > 100 µM (inactive). For the same compound, the GI50 [34] was 51.4 µM (inactive), the GI50 [35] was 1.91 µM (inactive) and the GI50 [37] was 81.7 µM (inactive). The GI50 [38] was 2.92 µM (inactive), the GI50 [39] was 6.9 µM (inactive) and the GI50 [40] was > 100 µM (inactive). For the same compound, the GI50 [59] was 3.86 µM (inactive), the GI50 [41] was 2.65 µM (inactive) and the GI50 [42] was 6.18 µM. For the same compound, the GI50 [43] was > 100 µM (inactive), the GI50 [44] was 6.22 µM (inactive) and the GI50 [45] was 7.29 µM (inactive). The GI50 [46] was > 100 µM (inactive), the GI50 [47] was 2.36 µM (inactive) and the GI50 [48] was 4.86 µM (inactive). The GI50 [49] was 3.38 µM (inactive), the GI50 [50] was 6.64 µM (inactive) and the GI50 [51] was 57.4 µM (inactive). The GI50 [52] was 2.48 µM (inactive), the GI50 [53] was 4.48 µM (inactive) and the GI50 [54] was 2.56 µM (inactive). For the same compound, the GI50 [55] was 2.28 µM (inactive), the GI50 [56] was 12.9 µM (inactive) and the GI50 [57] was 37.7 µM (inactive).
